Data reported in PMC10777851, “SMT-738: a novel small-molecule inhibitor of bacterial lipoprotein transport targeting Enterobacteriaceae” (Antimicrobial Agents and Chemotherapy, 2023).

How the values were obtained:
[1] = tested on: HepG2; assay: Cytotoxicity (CellTiter-Glo), HepG2; format: cell-based; conditions: HepG2, 24 h
Experimental: HepG2 (ATCC, HB-8065) and HEK293 (ATCC, CRL-1573) were sourced from ATCC. For the cytotoxicity assay, cells were seeded onto 96-well plates, which were then incubated for 24 h in a 5% CO2 incubator at 37°C. On the day of the assay, 10-point, twofold serial dilutions of test compound were prepared in assay media (MEM + 10% FBS) in separate 96-well plates. Assay plates were removed from the incubator, and the media from all of the wells were removed, taking care not to disturb the cell layer. Compound-containing assay media or control media were added to the relevant wells. Assay plates were returned to the 5% CO2 incubator at 37°C for 24 h. CellTiter-Glo reagent (Promega, G7570) was used to determine the viability of the cells.

[2] = tested on: human lymphoblastoid TK6 cells; assay: GreenScreen genotoxicity assay; format: cell-based; conditions: top concentration of 500 µM (= 196.85 µg/mL)
Experimental: The standard GreenScreen genotoxcity assay was performed by Cyprotex, UK. The assay uses two strains of human lymphoblastoid TK6 cells, the test strain (GenM-[…]), and the non-fluorescent control strain (GenM-C01). Incorporated in the test strain is a patented green fluorescent protein (GFP) reporter system that exploits the proper regulation of the GADD45a gene, which mediates the adaptive response to genotoxic stress.

[3] = Protein binding, human; format: in vitro ADME

Compound: Cc1cnccc1-c1[nH]c(N)nc1-c1ccc2c(c1)N(C(=O)C(C)(C)N)CCO2 [SMT-738]
- IC50 [1]: > 200 µM
- cytotoxicity IC50 [1]: > 78.74 µg/mL
- genotoxicity [2]: No toxicity was observed
- protein binding [3]: 62.7%
